Test results reported in patent publication US9808008B2, “Synergistic pesticidal compositions and related methods” (Dow AgroSciences LLC, priority 2013, dated 2017).

Columns and labels:
Type in all cases: in vivo
[1] = tested on: Western plant bug (Lygus bug), Lygus hesperus (Knight); assay: Treated bean piece bioassay against Western plant bug (Lygus bug), synergy by Colby's equation; details: Lygus bugs
From the text: The method described in Colby S. R., “Calculating Synergistic and Antagonistic Responses of Herbicide Combinations,” Weeds, 1967, 15, 20-22 was used to determine an existence of synergic effect between the nAChR allosteric activator compound and the pesticide (I), (II), or any agriculturally acceptable salt thereof in the formulated pesticidal composition. In this method, the percent insect control of the formulated pesticidal composition as observed in the study was compared to the “expected” percent control (E) as calculated by equation (1) (hereinafter “Colby's equation”) below: [formula] where X is the percentage of control with the first pesticide at a given rate (p), Y is the percentage of control with the second pesticide at a given rate (q), and E is the expected control by the first and second pesticide at a rate of p+q. […] A pesticidal composition was prepared by thoroughly mixing about 0.04 weight % of compound I with about 0.00125 weight % of spinetoram. The active compounds were formulated in a 10% acetone solution with 0.025% non-ionic surfactant, TWEEN® 20. Bioassays were performed for each different active solution. Bean pieces (about one inch-long) were used for the tests. Four bean pieces were placed in each tested active solution and left there for 10 minutes. Bean pieces were taken out of the active solution, and each piece was placed in a well in a 32-well tray and allowed to air dry. Three third-instar nymphs of Western plant bug (Lygus bug), Lygus hesperus (Knight), were infested into each well. The percent control of the pesticidal composition against Lygus bug was determined as the “Observed” action, and compared to those obtained by using about 0.04 weight % of compound I, and using about 0.00125 weight % of spinetoram alone. The “Colby's Expected Action” was calculated using Colby's equation as discussed previously. A pesticidal composition was prepared by thoroughly mixing about 0.04 weight % of compound I with about 0.005 weight % of spinetoram. The bioassays were performed wherein different active compounds were tested against Western plant bug (Lygus bug), Lygus hesperus (Knight), using the procedure described in example 4A.

[2] = tested on: cotton aphid, Aphis gossypii (Glover); assay: Track-sprayed cotton plant bioassay against cotton aphid, synergy by Colby's equation; details: Spinetoram alone, dose rate 0.005 weight %
From the text: The method described in Colby S. R., “Calculating Synergistic and Antagonistic Responses of Herbicide Combinations,” Weeds, 1967, 15, 20-22 was used to determine an existence of synergic effect between the nAChR allosteric activator compound and the pesticide (I), (II), or any agriculturally acceptable salt thereof in the formulated pesticidal composition. In this method, the percent insect control of the formulated pesticidal composition as observed in the study was compared to the “expected” percent control (E) as calculated by equation (1) (hereinafter “Colby's equation”) below: [formula] where X is the percentage of control with the first pesticide at a given rate (p), Y is the percentage of control with the second pesticide at a given rate (q), and E is the expected control by the first and second pesticide at a rate of p+q. […] The percent control of the pesticidal composition against cotton aphid, Aphis gossypii (Glover), was determined as the “Observed” action, and compared to those obtained by using about 0.0020 weight % of compound II, and using about 0.005 weight % of spinetoram alone. The “Colby's Expected Action” was calculated using Colby's equation as discussed previously.

[3] = tested on: diamondback moth, Plutella xylostella; assay: Track-sprayed cabbage plant bioassay against diamondback moth, synergy by Colby's equation; details: Spinetoram alone, dose rate 0.0003125 weight %
From the text: The method described in Colby S. R., “Calculating Synergistic and Antagonistic Responses of Herbicide Combinations,” Weeds, 1967, 15, 20-22 was used to determine an existence of synergic effect between the nAChR allosteric activator compound and the pesticide (I), (II), or any agriculturally acceptable salt thereof in the formulated pesticidal composition. In this method, the percent insect control of the formulated pesticidal composition as observed in the study was compared to the “expected” percent control (E) as calculated by equation (1) (hereinafter “Colby's equation”) below: [formula] where X is the percentage of control with the first pesticide at a given rate (p), Y is the percentage of control with the second pesticide at a given rate (q), and E is the expected control by the first and second pesticide at a rate of p+q. […] Bioassays were performed for different active compounds. Cabbage plants with about two to three new-growth-true leaf stage were treated with different active compounds using a track sprayer at a volume of 400 L/Ha. Three second instar diamondback moth, Plutella xylostella, were infested onto each leaf disc. […] The “Colby's Expected Action” was calculated using Colby's equation as discussed previously.

[4] = tested on: South American brown stink bug, Euschistus heros; assay: Treated bean piece bioassay against South American brown stink bug, synergy by Colby's equation; details: Spinetoram alone, dose rate 0.0000039 weight %
From the text: The method described in Colby S. R., “Calculating Synergistic and Antagonistic Responses of Herbicide Combinations,” Weeds, 1967, 15, 20-22 was used to determine an existence of synergic effect between the nAChR allosteric activator compound and the pesticide (I), (II), or any agriculturally acceptable salt thereof in the formulated pesticidal composition. In this method, the percent insect control of the formulated pesticidal composition as observed in the study was compared to the “expected” percent control (E) as calculated by equation (1) (hereinafter “Colby's equation”) below: [formula] where X is the percentage of control with the first pesticide at a given rate (p), Y is the percentage of control with the second pesticide at a given rate (q), and E is the expected control by the first and second pesticide at a rate of p+q. […] The percent control of the pesticidal composition against South American brown stink bug, Euschistus heros, was determined as the “Observed” action, and compared to those obtained by using about 0.04 weight % of compound I, and using about 0.0000039 weight % of spinetoram alone. The “Colby's Expected Action” was calculated using Colby's equation as discussed previously.

Molecule | % Control Three Days After Treatment ([1]; Example 8A, Compound I alone, dose rate 0.04 weight %) | % Control Three Days After Treatment ([1]; Example 8B, Compound I alone, dose rate 0.04 weight %) | % Control Three Days After Treatment ([1]; Example 8B, Compound I alone, dose rate 0.04 weight %, listed as compound I) | % Control Three Days After Treatment [2] | % Control Three Days After Treatment [3] | % Control Four Days After Treatment [4] | % Control Three Days After Treatment ([1]; Example 8A, Spinetoram alone, dose rate 0.00125 weight %) | % Control Three Days After Treatment ([1]; Example 8A, Spinetoram alone, dose rate 0.00125 weight %, listed as spinetoram) | % Control Three Days After Treatment ([1]; Example 8B, Spinetoram alone, dose rate 0.005 weight %) | % Control Three Days After Treatment ([1]; Example 8B, Spinetoram alone, dose rate 0.005 weight %, listed as spinetoram)
CCN(C(=O)CCSCCC(F)(F)F)c1cn(-c2cccnc2)nc1Cl [Compound I, N-(3-chloro-1-(pyridin-3-yl)-1H-pyrazol-4-yl)-N-ethyl-3-((3,3,3-trifluoropropyl)thio)propanamide] | no control | 0% | no control | – | – | – | – | – | – | –
Spinetoram | – | – | – | 2% | 54.17% | 25% | 0% | no control | 0% | no control
